Assay results published in ChEMBL document CHEMBL3596103, “Synthesis of novel amide functionalized 2H-chromene derivatives by Ritter amidation of primary alcohol using HBF4·OEt2 as a mild and versatile reagent and evaluation of their antimicrobial and anti-biofilm activities” (Bioorg Med Chem Lett, 2015).
pIC50: −log10 of the molar value. ≈ marks a conversion by molar mass, not a printed value. Calls of active or inactive are those of the source. The calls are words filed in the database; no cut-off is given here.

Key:
Bacillus subtilis [1] = experiment: Bactericidal activity against Bacillus subtilis MTCC 121 incubated for 24 hrs at 37 degC; assay type: functional; conditions: MTCC 121, 24 h
Raoultella planticola [2] = experiment: Antimicrobial activity against Klebsiella planticola MTCC 530 incubated for 24 hrs at 37 degC by well diffusion method; assay type: functional; conditions: MTCC 530, 24 h
Escherichia coli [3] = experiment: Inhibition of bio-film formation of Escherichia coli MTCC 739 incubated for 24 hrs at 37 degC under static conditions by crystal violet staining method; assay type: functional, organism-based; conditions: MTCC 739, 24 h
Staphylococcus aureus [4] = experiment: Inhibition of bio-film formation of Staphylococcus aureus MLS16 MTCC 2940 incubated for 24 hrs at 37 degC under static conditions by crystal violet staining method; assay type: functional, organism-based; conditions: MLS16 MTCC 2940, 24 h
Bacillus subtilis [5] = experiment: Antimicrobial activity against Bacillus subtilis MTCC 121 incubated for 24 hrs at 37 degC by well diffusion method; assay type: functional; conditions: MTCC 121, 24 h
Candida albicans = experiment: Antimicrobial activity against Candida albicans MTCC 3017 incubated for 24 hrs at 30 degC by well diffusion method; assay type: functional; conditions: MTCC 3017, 24 h
Raoultella planticola [6] = experiment: Inhibition of bio-film formation of Klebsiella planticola MTCC 530 incubated for 24 hrs at 37 degC under static conditions by crystal violet staining method; assay type: functional, organism-based; conditions: MTCC 530, 24 h
Raoultella planticola [7] = experiment: Bactericidal activity against Klebsiella planticola MTCC 530 incubated for 24 hrs at 37 degC; assay type: functional; conditions: MTCC 530, 24 h
Escherichia coli [8] = experiment: Antimicrobial activity against Escherichia coli MTCC 739 incubated for 24 hrs at 37 degC by well diffusion method; assay type: functional; conditions: MTCC 739, 24 h
Micrococcus luteus [9] = experiment: Inhibition of bio-film formation of Micrococcus luteus MTCC 2470 incubated for 24 hrs at 37 degC under static conditions by crystal violet staining method; assay type: functional, organism-based; conditions: MTCC 2470, 24 h
Escherichia coli [10] = experiment: Bactericidal activity against Escherichia coli MTCC 739 incubated for 24 hrs at 37 degC; assay type: functional; conditions: MTCC 739, 24 h
Staphylococcus aureus [11] = experiment: Bactericidal activity against Staphylococcus aureus MLS16 MTCC 2940 incubated for 24 hrs at 37 degC; assay type: functional; conditions: MLS16 MTCC 2940, 24 h
Staphylococcus aureus [12] = experiment: Antimicrobial activity against Staphylococcus aureus MLS16 MTCC 2940 incubated for 24 hrs at 37 degC by well diffusion method; assay type: functional; conditions: MLS16 MTCC 2940, 24 h
Bacillus subtilis [13] = experiment: Inhibition of bio-film formation of Bacillus subtilis MTCC 121 incubated for 24 hrs at 37 degC under static conditions by crystal violet staining method; assay type: functional, organism-based; conditions: MTCC 121, 24 h
Micrococcus luteus [14] = experiment: Bactericidal activity against Micrococcus luteus MTCC 2470 incubated for 24 hrs at 37 degC; assay type: functional; conditions: MTCC 2470, 24 h
Micrococcus luteus [15] = experiment: Antimicrobial activity against Micrococcus luteus MTCC 2470 incubated for 24 hrs at 37 degC by well diffusion method; assay type: functional; conditions: MTCC 2470, 24 h
Pseudomonas aeruginosa = experiment: Antimicrobial activity against Pseudomonas aeruginosa MTCC 2453 incubated for 24 hrs at 37 degC by well diffusion method; assay type: functional; conditions: MTCC 2453, 24 h
Staphylococcus aureus [16] = experiment: Induction of intracellular ROS accumulation in Staphylococcus aureus MLS16 MTCC 2940 sessile biofilm cells at 0.5 to 2 um incubated for 24 hrs at 35 degC by DCFH-DA dye based fluorescence assay; assay type: functional, organism-based

SMILES	pIC50 (Escherichia coli [3])	pIC50 (Staphylococcus aureus [4])	MIC (Bacillus subtilis [5])	MIC (Candida albicans)	MIC (Escherichia coli [8])	pIC50 (Micrococcus luteus [9])	MIC (Staphylococcus aureus [12])	pIC50 (Bacillus subtilis [13])	MIC (Micrococcus luteus [15])	MIC (Pseudomonas aeruginosa)	MBC (Bacillus subtilis [1])	MIC (Raoultella planticola [2])	pIC50 (Raoultella planticola [6])	MBC (Raoultella planticola [7])	MBC (Escherichia coli [10])	MBC (Staphylococcus aureus [11])	MBC (Micrococcus luteus [14])	Activity (Staphylococcus aureus [16])
O=C(CBr)NCC1=Cc2ccccc2OC1(O)C(F)(F)F (stereo not drawn)	4.98	5.44	9.5 µM	> 125 µg/mL	19.1 µM	5.08	9.5 µM	5.29	19.1 µM	> 125 µg/mL	19.1 µM (≈ 6.99 µg/mL)	19.1 µM	4.90	19.1 µM (≈ 6.99 µg/mL)	38.3 µM (≈ 14 µg/mL)	19.1 µM (≈ 6.99 µg/mL)	38.3 µM (≈ 14 µg/mL)	
O=C(O)c1cn(C2CC2)c2cc(N3CCNCC3)c(F)cc2c1=O [CIPROFLOXACIN]			2.7 µM	> 125 µg/mL	2.7 µM		2.7 µM		2.7 µM	2.7 µM	5.7 µM (≈ 1.89 µg/mL)	2.7 µM		2.7 µM (≈ 0.895 µg/mL)	5.7 µM (≈ 1.89 µg/mL)	2.7 µM (≈ 0.895 µg/mL)	5.7 µM (≈ 1.89 µg/mL)	
O=C(Cc1cccc(Cl)c1)NCC1=Cc2ccccc2OC1(O)C(F)(F)F (stereo not drawn)		4.71	74.2 µM	> 125 µg/mL	> 125 µg/mL	4.77	37.1 µM	4.36	> 125 µg/mL	> 125 µg/mL	74.2 µM (≈ 29.5 µg/mL)	37.1 µM		> 230 µM	> 230 µM	37.1 µM (≈ 14.8 µg/mL)	74.2 µM (≈ 29.5 µg/mL)	
CC[C@H]1OC(=O)[C@H](C)[C@@H](O[C@H]2C[C@@](C)(OC)[C@@H](O)[C@H](C)O2)[C@H](C)[C@@H](O[C@@H]2O[C@H](C)C[C@H](N(C)C)[C@H]2O)[C@](C)(O)C[C@@H](C)C(=O)[C@H](C)[C@@H](O)[C@]1(C)O [ERYTHROMYCIN]	6.37	6.60				6.51		6.38					6.46					Active
CC(=O)NCC1=Cc2ccccc2OC1(O)C(F)(F)F (stereo not drawn)			> 125 µg/mL	> 125 µg/mL	> 125 µg/mL		> 125 µg/mL		> 125 µg/mL	> 125 µg/mL		> 125 µg/mL						
Clc1ccc(COC(Cn2ccnc2)c2ccc(Cl)cc2Cl)c(Cl)c1 (stereo not drawn) [MICONAZOLE]			> 125 µg/mL	18.7 µM	> 125 µg/mL		> 125 µg/mL		> 125 µg/mL	> 125 µg/mL		> 125 µg/mL						
O=C(Cc1ccc(Br)cc1)NCC1=Cc2ccccc2OC1(O)C(F)(F)F (stereo not drawn)		4.77	33.6 µM	> 125 µg/mL	> 125 µg/mL	4.76	> 125 µg/mL		> 125 µg/mL	> 125 µg/mL	> 230 µM	33.6 µM		> 230 µM	> 230 µM	67.2 µM (≈ 29.7 µg/mL)	33.6 µM (≈ 14.9 µg/mL)	
O=C(Cc1ccccc1)NCC1=Cc2ccccc2OC1(O)C(F)(F)F (stereo not drawn)			> 125 µg/mL	> 125 µg/mL	> 125 µg/mL		> 125 µg/mL		> 125 µg/mL	> 125 µg/mL		> 125 µg/mL						

More lines, main results first:

pIC50 (Escherichia coli [3])	pIC50 (Staphylococcus aureus [4])	MIC (Bacillus subtilis [5])	MIC (Candida albicans)	MIC (Escherichia coli [8])	pIC50 (Micrococcus luteus [9])	MIC (Staphylococcus aureus [12])	pIC50 (Bacillus subtilis [13])	MIC (Micrococcus luteus [15])	MIC (Pseudomonas aeruginosa)	SMILES	MBC (Bacillus subtilis [1])	MIC (Raoultella planticola [2])	pIC50 (Raoultella planticola [6])	MBC (Raoultella planticola [7])	MBC (Escherichia coli [10])	MBC (Staphylococcus aureus [11])	MBC (Micrococcus luteus [14])	Activity (Staphylococcus aureus [16])
		> 125 µg/mL	> 125 µg/mL	> 125 µg/mL		> 125 µg/mL		> 125 µg/mL	> 125 µg/mL	CC(=O)NCC1=Cc2cc(Br)ccc2OC1(O)C(F)(F)F (stereo not drawn)		> 125 µg/mL						
			> 125 µg/mL			> 125 µg/mL				O=C(CCBr)NCC1=Cc2cccc(F)c2OC1(O)C(F)(F)F (stereo not drawn)								
5.24	5.21	14.3 µM	> 125 µg/mL	14.3 µM	5.11	14.3 µM	5.06	28.6 µM	> 125 µg/mL	O=C(Cc1ccc(Br)cc1)NCC1=Cc2cc(Br)ccc2OC1(O)C(F)(F)F (stereo not drawn)	28.6 µM (≈ 14.9 µg/mL)	14.3 µM	4.83	57.3 µM (≈ 29.9 µg/mL)	14.3 µM (≈ 7.45 µg/mL)	14.3 µM (≈ 7.45 µg/mL)	28.6 µM (≈ 14.9 µg/mL)	
		> 125 µg/mL	> 125 µg/mL	> 125 µg/mL		> 125 µg/mL		> 125 µg/mL	> 125 µg/mL	O=C(CCBr)NCC1=Cc2ccccc2OC1(O)C(F)(F)F (stereo not drawn)		> 125 µg/mL						
		> 125 µg/mL	> 125 µg/mL	> 125 µg/mL		> 125 µg/mL		> 125 µg/mL	> 125 µg/mL	O=C(CCBr)NCC1=Cc2cc(Br)ccc2OC1(O)C(F)(F)F (stereo not drawn)		> 125 µg/mL						
5.85	5.92	4 µM	> 125 µg/mL	8.3 µM	5.77	4 µM	5.85	8.3 µM	> 125 µg/mL	O=C(CBr)NCC1=Cc2cc(Br)ccc2OC1(O)C(F)(F)F (stereo not drawn)	4 µM (≈ 1.78 µg/mL)	4 µM	5.77	8.3 µM (≈ 3.69 µg/mL)	16.6 µM (≈ 7.39 µg/mL)	4 µM (≈ 1.78 µg/mL)	8.3 µM (≈ 3.69 µg/mL)	Active
		> 125 µg/mL	> 125 µg/mL	> 125 µg/mL		> 125 µg/mL		> 125 µg/mL	> 125 µg/mL	O=C(CCCCBr)NCC1=Cc2ccccc2OC1(O)C(F)(F)F (stereo not drawn)		> 125 µg/mL						
5.09	5.04	31.2 µM	> 125 µg/mL	15.6 µM	4.74	15.6 µM	4.65	31.2 µM	> 125 µg/mL	O=C(Cc1cccc(Cl)c1)NCC1=Cc2cc(Br)ccc2OC1(O)C(F)(F)F (stereo not drawn)	74.2 µM (≈ 35.4 µg/mL)	31.2 µM	4.61	74.2 µM (≈ 35.4 µg/mL)	37.1 µM (≈ 17.7 µg/mL)	37.1 µM (≈ 17.7 µg/mL)	74.2 µM (≈ 35.4 µg/mL)	
	4.66	> 125 µg/mL	> 125 µg/mL	> 125 µg/mL	4.72	33.6 µM		> 125 µg/mL	> 125 µg/mL	O=C(Cc1ccccc1)NCC1=Cc2cc(Br)ccc2OC1(O)C(F)(F)F (stereo not drawn)	> 230 µM	33.6 µM		> 230 µM	> 230 µM	67.2 µM (≈ 29.7 µg/mL)	33.6 µM (≈ 14.9 µg/mL)	
		> 125 µg/mL	> 125 µg/mL	> 125 µg/mL		> 125 µg/mL		> 125 µg/mL	> 125 µg/mL	O=C(CCCCBr)NCC1=Cc2cc(Br)ccc2OC1(O)C(F)(F)F (stereo not drawn)		> 125 µg/mL						
